Experimental data published in patent US11285158B2, “Uses of pyrimidopyrimidinones as SIK inhibitors” (The General Hospital Corporation, priority 2017, dated 2022).

Columns and labels:
mouse skin = assay: Skin darkening experiments in mice (Table 5); format: in vivo; conditions: HG-9-91-01: 2 days, 25 mM, HG-11-136-01: 12 days, HG-11-143-01: 12 days, 25 mM (4 days) −130 mM (8 days)
Protocol: Mouse pigmentation experiments. […] Daily differences in darkening of the skin were measured by reflective colorimetry. Skin was harvested, fixed, and processed for paraffin embedding. Sections were cut from paraffin blocks, and sections were stained utilizing hematoxylin and eosin (morphology) and Fontana-Masson (melanin). Melanin dissolution was conducted utilizing NaOH lysis method (Wakamatsu and Ito 2002).
(§1) Table 5 below additionally provides characteristics of exemplary SIK inhibitor compounds, MITF induction in B16 cells, EC50, log P, and experimental conditions for skin darkening experiments in mice and humans.

B16 cells = assay: In vitro MITF induction in B16 cells; format: cell-based, mouse; conditions: for EC50 / maximal fold induction: Mus musculus, Table 5; for EC50: readout not given, presumably mitf induction in B16 cells; for maximal fold induction: B16 cells, read-out: Highest fold mitf induction in B16 cells; for Highest fold Mitf induction: Table 6, cells not given, same values as Table 5 (B16 cells)
Protocol: (§2) qPCR. mRNA was extracted from cells using the RNeasy Mini Kit (Qiagen®). KAPA SYBR® FAST Universal One-Step qRT-PCR Kit (KAPA BIOSYSTEMS®) was used to prepare mRNA samples for qPCR and samples were analyzed using the 7500 Fast Real Time PCR System (Applied Biosystems®). The relative expression of each gene was calculated by 7500 Fast System Software program, which utilizes Ct normalized to mRNA levels of RPL11 to calculate relative expression. Results are reported relative to control cells.
Tables 2 to 5 below show the effects of exemplary […] compounds on skin darkening, including an in vitro test of MITF induction following the same protocol as described above in paragraph 333, wherein exemplary SIK inhibitor compounds were tested for their in vitro induction of MITF.
as §1

[1] = tested on: human breast skin explants; assay: Human skin explants: darkening/pigmentation after topical SIK inhibitor; format: cell-based; conditions: for Results (skin darkening): Human Skin Explants
Protocol: Image and Colorimeter analysis were conducted 24 hours after the last treatment.
Human pigmentation experiments. Full thickness human breast skin explants were cultured in petri dishes with a solid phase and liquid phase phenol red free DMEM medium with […], 5% fungizone (Gibco®), and 10% FBS. Passive application refers to simply applying the treatment to skin without further rubbing or manipulation. Mechanical application refers to application of agents to skin with further rubbing of treatment with 10 clockwise turns of a gloved cotton swab applicator. Skin was harvested, fixed, and processed for paraffin embedding. Sections were cut from paraffin blocks, and sections were stained utilizing hematoxylin and eosin (morphology) and Fontana-Masson (melanin).

SIKs = assay: Kinase activity in vitro assay (biochemical IC50 against SIKs); set-up: species or system human; conditions: compared with HG 9-91-01 (FIG. 6)
Protocol: Kinase activity in vitro assay. The biochemical activities against SIK2 were measured by Caliper-based mobility shift assay (PerkinElmer®). […] Reactions were quenched by adding 20 mM EDTA (pH 8) after 1 hour, and percentage of substrate conversion was measured by LabChip EZ Reader II (PerkinElmer®). IC50's for SIK2 inhibition were calculated using SmartFit nonlinear regression in Genedata® Screener software suite (Genedata®).
All other in vitro kinase assay were conducted using the SelectScreen Kinase Profiling Service at Thermo Fisher Scientific® (Madison, Wis.). The protocols are available from Thermo Fisher Scientific® website.

[2] = tested on: normal human melanocytes, UACC62 melanoma cells, and UACC257 melanoma cells; assay: MITF and TRPM1 mRNA expression by qPCR; format: cell-based
Protocol: Cell Culture. UACC257 and UACC62 cells were grown in RPM1+1% penicillin and streptomycin+5% fetal bovine serum. Normal human melanocytes were grown in TIVA, and starved 24 hours in HAM's F-12+1% penicillin and streptomycin before all molecular experiments.
as §2

[3] = Table 2, passive topical application

Row | SMILES | EC50 (B16 cells) [µM] | maximal fold induction (B16 cells) | other results
1 | COc1ccc(N(C(=O)Nc2c(C)cccc2C)c2cc(Nc3ccc(N4CCN(C)CC4)cc3)ncn2)c(OC)c1 [HG-9-91-01] | 0.016 | – | Darkening (Mouse) (mouse skin): Darkens
2 | Cc1cccc(C)c1NC(=O)N1C/C=C\COc2cccc(c2)Nc2cc1ncn2 [HG-10-32-01] | – | 2.4 | Highest fold Mitf induction (B16 cells): 2.4 fold
3 | COc1ccc(N2C(=O)N(c3c(C)cccc3C)Cc3cnc(Nc4ccc(N5CCN(C)CC5)cc4)nc32)c(OC)c1 [HG-11-136-01] | – | 6.1 | Darkening (Mouse) (mouse skin): Darkens
4 | CN1CCN(c2ccc(Nc3ncc4c(n3)N(C)C(=O)N(c3ccccc3)C4)cc2)CC1 [HG-11-137-01] | – | 4.82 | Results (skin darkening) ([1]; Table 3): Darkens; Highest fold Mitf induction (B16 cells): 4.82 fold
5 | COc1cc(N2CCN(C)CC2)ccc1Nc1ncc2c(n1)N(C)C(=O)N(c1ccccc1)C2 [HG-11-139-02] | – | 5.76 | Highest fold Mitf induction (B16 cells): 5.76 fold
6 | COc1ccc(N2C(=O)N(c3c(C)cccc3C)Cc3cnc(Nc4cc(N5CCOCC5)cc(N5CCN(C)CC5)c4)nc32)c(OC)c1 [HG-11-143-01] | 0.057 | 6.8 | –
7 | CCN1CCN(Cc2ccc(Nc3ncc4c(n3)N(c3ccc(OC)cc3OC)C(=O)N(c3c(C)cccc3C)C4)cc2C(F)(F)F)CC1 [YKL-04-103] | 0.001 | 10.2 | –
8 | COc1ccc(N2C(=O)N(c3c(C)cccc3C)Cc3cnc(Nc4ccc(N5CCOCC5)c(C(F)(F)F)c4)nc32)c(OC)c1 [YKL-04-104] | 0.021 | 8 | –
9 | COc1ccc(N2C(=O)N(c3c(C)cccc3C)Cc3cnc(Nc4cnn(C5CCOCC5)c4)nc32)c(OC)c1 [YKL-04-105] | 0.005 | 9.9 | –
10 | COc1ccc(N2C(=O)N(c3c(C)cccc3C)Cc3cnc(Nc4cccc(OCCN5CCOCC5)c4)nc32)c(OC)c1 [YKL-04-106] | 0.074 | 9 | –
11 | COc1ccc(N2C(=O)N(c3c(C)cccc3C)Cc3cnc(Nc4cc(C)c(OCCN5CCOCC5)c(C)c4)nc32)c(OC)c1 [YKL-04-107] | 0.015 | 3.6 | –
12 | COc1ccc(N2C(=O)N(c3c(C)cccc3C)Cc3cnc(Nc4ccc(CCCN5CCOCC5)cc4)nc32)c(OC)c1 [YKL-04-108] | 0.014 | 13.9 | Results (skin darkening) ([1]; Table 3): Darkens
13 | COc1ccc(N2C(=O)N(c3c(C)cccc3C)Cc3cnc(Nc4cc(N5CCN(C)CC5)cc(C(F)(F)F)c4)nc32)c(OC)c1 [YKL-04-112] | 0.215 | 5.2 | –
14 | COc1ccc(N2C(=O)N(c3c(C)cccc3C)Cc3cnc(Nc4ccc(CN5CCN(C)CC5)cc4)nc32)nc1 [YKL-04-136-10] | – | 16.3 | Highest fold Mitf induction (B16 cells): 16.28 fold
15 | COc1cc(N2CCN(C(C)=O)CC2)ccc1N1C(=O)N(c2c(C)cccc2C)Cc2cnc(Nc3ccc(CN4CCN(C)CC4)cc3)nc21 [YKL-04-136-11] | – | 9.58 | Highest fold Mitf induction (B16 cells): 9.58 fold
16 | Cc1cccc(C)c1N1Cc2cnc3nc2N(C/C=C/COCc2cccc(c2)N3)C1=O [YKL-05-200-2] | – | – | Results (skin darkening) [1, 3]: Darkens; Results (skin darkening) ([1]; Table 4): Darkens
17 | Cc1cccc(Cl)c1N1Cc2cnc3nc2N(C/C=C\CCOc2cccc(c2)N3)C1=O [YKL-05-201-1] | – | – | Results (skin darkening) [1, 3]: Darkens; Results (skin darkening) ([1]; Table 4): Darkens
18 | Cc1cccc(C)c1N1Cc2cnc3nc2N(C/C=C\COc2cc(ccc2N2CCN(C)CC2)N3)C1=O [YKL-05-204-1] | – | – | Results (skin darkening) [1, 3]: Darkens; Results (skin darkening) ([1]; Table 4): Darkens
19 | Cc1cccc(C)c1N1Cc2cnc3nc2N(C/C=C/COc2cc(ccc2N2CCN(C)CC2)N3)C1=O [YKL-05-204-2] | – | – | Results (skin darkening) [1, 3]: Darkens; Results (skin darkening) ([1]; Table 4): Darkens
20 | Cc1cccc(C)c1N1Cc2cnc(Nc3ccc(N4CCN(C)CC4)cc3)nc2N(C)C1=O [YKL-06-29] | – | – | Results (skin darkening) [1, 3]: Darkens; Results (skin darkening) ([1]; Table 4): Darkens
21 | Cc1cccc(C)c1N1Cc2cnc(Nc3ccc(N4CCN(C)CC4)cc3)nc2N(C(C)C)C1=O [YKL-06-058] | – | – | Results (skin darkening) [1, 3]: Darkens; Results (skin darkening) ([1]; Table 4): Darkens
22 | Cc1cccc(C)c1N1Cc2cnc(Nc3ccc(N4CCN(C)CC4)cc3)nc2N(C2CCC2)C1=O [YKL-06-060] | – | – | Results (skin darkening) [1, 3]: Darkens; Results (skin darkening) ([1]; Table 4): Darkens
23 | Cc1cccc(C)c1N1Cc2cnc(Nc3ccc(N4CCN(C)CC4)cc3)nc2N(C2CCCCC2)C1=O [YKL-06-062, 1-cyclohexyl-3-(2,6-dimethylphenyl)-7-(4-(4-methylpiperazin-1-yl)phenylamino)-3,4-dihydropyrimido[4,5-d]pyrimidin-2(1H)-one] | – | – | Results (skin darkening) [1, 3]: Darkens; Results (skin darkening) ([1]; Table 4): Darkens; Gross pigmentation of human skin explants ([1]; passive topical application, 37.5 mM, 8 days (1×/day)): induced significant pigmentation; Melanin content, Fontana Masson staining ([1]; passive topical application, 37.5 mM, 8 days, compared to control): increased melanin content; IC50 values for inhibition of SIKs (SIKs): comparable; Mitf expression ([2]; UACC62 and UACC257 melanoma cells (FIG. 7)): induces Mitf expression; TRPM1 mRNA levels (MITF gene target) ([2]; delayed relative to MITF induction, 4 uM, over 24 hours): increased; MITF mRNA expression ([2]; normal human melanocytes, UACC62 and UACC257 cells, 3 hours of treatment, relative to RPL11): dose dependent increase; Induction of the pigmentation pathway compared with HG 9-91-01 ([2]; normal human melanocytes, Mitf and TRPM1 mRNA (FIG. 4)): as efficacious in inducing the pigmentation pathway as HG 9-91-01

Second part, led by results:

Row | EC50 (B16 cells) [µM] | SMILES | maximal fold induction (B16 cells) | other results
24 | 0.657 | COc1ccc(N2C(=O)N(c3c(C)cccc3C)Cc3cnc(Nc4cc(N5CCOCC5)cc(C(F)(F)F)c4)nc32)c(OC)c1 [YKL-04-113] | 11.2 | –
25 | 0.067 | COc1ccc(N2C(=O)N(c3c(C)cccc3C)Cc3cnc(Nc4ccc(N5CCN(C)CC5)c(OC)c4)nc32)c(OC)c1 [YKL-04-114] | 10.4 | –
26 | 0.024 | COc1ccc(N2C(=O)N(c3c(C)cccc3C)Cc3cnc(Nc4ccc(N5CCOCC5)c(OC)c4)nc32)c(OC)c1 [YKL-04-115] | 10.1 | –
27 | 1420 | COc1ccc(N2C(=O)N(c3c(C)cccc3C)Cc3cnc(Nc4cc(CN5CCOCC5)cc(C(F)(F)F)c4)nc32)c(OC)c1 [YKL-04-118] | 1.1 | –
28 | 0.133 | COc1ccc(N2C(=O)N(c3c(C)cccc3C)Cc3cnc(Nc4cc(CN5CCN(C)CC5)cc(C(F)(F)F)c4)nc32)c(OC)c1 [YKL-04-125] | 9.7 | –
29 | 0.053 | COc1ccc(N2C(=O)N(c3c(C)cccc3C)Cc3cnc(Nc4ccc(CN5CCN(C)CC5)cc4)nc32)c(OC)c1 [YKL-04-136-01] | 9.7 | –
30 | 0.021 | COc1ccc(N2C(=O)N(c3c(C)cccc3C)Cc3cnc(Nc4cnn(CCN(C)C)c4)nc32)c(OC)c1 [YKL-04-136-02] | 16.1 | –
31 | 0.025 | COc1ccc(N2C(=O)N(c3c(C)cccc3Cl)Cc3cnc(Nc4ccc(N5CCN(C)CC5)cc4)nc32)c(OC)c1 [YKL-04-136-03] | 6.2 | –
32 | 0.015 | COc1ccc(N2C(=O)N(c3c(C)cccc3Cl)Cc3cnc(Nc4cnn(CCN(C)C)c4)nc32)c(OC)c1 [YKL-04-136-04] | 9.2 | –
33 | 0.042 | COc1cc(N2CCN(C(C)=O)CC2)ccc1N1C(=O)N(c2c(C)cccc2C)Cc2cnc(Nc3ccc(N4CCN(C)CC4)cc3)nc21 [YKL-04-136-05] | 8.9 | –
34 | 0.009 | COc1ccc(N2C(=O)N(c3c(C)cccc3C)Cc3cnc(Nc4ccc(N5CCN(C)CC5)cc4)nc32)nc1 [YKL-04-136-06] | 26.9 | –
35 | 0.127 | COc1cc(N2CCN(C(C)=O)CC2)ccc1N1C(=O)N(c2c(C)cccc2C)Cc2cnc(Nc3cnn(CCN(C)C)c3)nc21 [YKL-04-136-07] | 2.4 | –
36 | 0.014 | COc1ccc(N2C(=O)N(c3c(C)cccc3C)Cc3cnc(Nc4cnn(CCN(C)C)c4)nc32)nc1 [YKL-04-136-08] | 4.1 | –
